Columns and labels:
Mus musculus [1] = test: Anesthetic activity in iv dosed Kunming mouse by up and down method; type: functional
[2] = Therapeutic index, ratio of LD50 for toxicity in iv dosed Kunming mouse assessed as lethal dose to ED50 for anesthetic activity in iv dosed Kunming mouse; type: organism-based; conditions: in vivo, read-out: Ratio LD50/ED50
Mus musculus [3] = test: Anesthetic activity in Kunming mouse assessed as disappearance of flip reflex by measuring onset time administered as single bolus dose; type: functional
Mus musculus [4] = test: Anesthetic activity in Kunming mouse assessed as reappearance of flip reflex by measuring duration time administered as single bolus dose; type: functional; also: test concentration or dose not given here
[5] = Toxicity in iv dosed Kunming mouse assessed as lethal dose; type: organism-based; conditions: in vivo

| Structure (SMILES) | ED50 (Mus musculus [1]) | selectivity ratio [2] | Time (Mus musculus [3]) | Time (Mus musculus [4]) | LD50 [5] |
| --- | --- | --- | --- | --- | --- |
| CCN1CCN(CCC(=O)Oc2c(C(C)C)cccc2C(C)C)CC1.Cl | 12 mg/kg | 3.2 | 2 s | 167 s | 38000 µmol/kg |
| CCN1CCN(CC(=O)Oc2c(C(C)C)cccc2C(C)C)CC1.Cl | 8 mg/kg | 1.4 | 13 s | 139 s | 11500 µmol/kg |
| CCN(CC)CCC(=O)Oc1c(C(C)C)cccc1C(C)C.Cl | 17 mg/kg | 3.5 | 3 s | 162 s | 58800 µmol/kg |
| CC(C)c1cccc(C(C)C)c1OC(=O)CCN1CCOCC1.Cl | 12 mg/kg | 3.6 | 16 s | 145 s | 43800 µmol/kg |
| CC(C)c1cccc(C(C)C)c1OC(=O)CCN1CCCCC1.Cl | 8.2 mg/kg | 4.5 | 21 s | 152 s | 36900 µmol/kg |
| CCCN(CCC)CC(=O)OCCCC(=O)Oc1c(C(C)C)cccc1C(C)C.Cl | 9 mg/kg | 5.1 | 37 s | 402 s | 45900 µmol/kg |
| CCN(CC)CC(=O)OCCCC(=O)Oc1c(C(C)C)cccc1C(C)C.Cl | 11 mg/kg | 4.8 | 20 s | 371 s | 52800 µmol/kg |
| CCN1CCN(CCCC(=O)OCCCC(=O)Oc2c(C(C)C)cccc2C(C)C)CC1.Cl | 6.5 mg/kg | 4.9 | 11 s | 456 s | 31900 µmol/kg |
| CC(C)c1cccc(C(C)C)c1OC(=O)CCCOC(=O)CN1CCCCC1.Cl | 8.3 mg/kg | 4.8 | 27 s | 440 s | 39800 µmol/kg |
| CC1CCN(CCC(=O)Oc2c(C(C)C)cccc2C(C)C)CC1.Cl | 9.2 mg/kg | 4.2 | 41 s | 179 s | 38900 µmol/kg |
| CC(C)c1cccc(C(C)C)c1OC(=O)CN1CCCCC1C.Cl (stereo not given) | 9.2 mg/kg | 1.7 | 27 s | 150 s | 15800 µmol/kg |
| CC1CCN(CC(=O)OCCCC(=O)Oc2c(C(C)C)cccc2C(C)C)CC1.Cl | 3.6 mg/kg | 4.8 | 8 s | 362 s | 17600 µmol/kg |
| CC(C)c1cccc(C(C)C)c1OC(=O)CCCOC(=O)CCCN1CCOCC1.Cl | 3.6 mg/kg | 4.9 | 7 s | 375 s | 17500 µmol/kg |
| CCN1CCN(CC(=O)OCCCC(=O)Oc2c(C(C)C)cccc2C(C)C)CC1.Cl | 10.1 mg/kg | 5 | 16 s | 193 s | 50500 µmol/kg |
| CC(C)c1cccc(C(C)C)c1OC(=O)CCN1CCN(C)CC1.Cl | 9 mg/kg | 3.7 | 14 s | 156 s | 33400 µmol/kg |
| CC1CCCN(CCCC(=O)OCCCC(=O)Oc2c(C(C)C)cccc2C(C)C)C1.Cl (stereo not given) | 1.9 mg/kg | 5.6 | 11 s | 571 s | 10700 µmol/kg |

Source: ChEMBL document CHEMBL6074644, “Design, synthesis, and activity evaluation of water-soluble propofol derivatives as anesthetic drugs” (Bioorg Med Chem Lett, 2024)
